The values that follow are results of earlier work, collected in patent publication US5032506A, “Color control system” (priority 1986, dated 1991).

This data set concerns diaphorase. As to conditions: chromogen substrates of diaphorase; literature values (Gella et al. 1981); read-out: Km for the tetrazolium salts.

As a reminder, the Km is the concentration of substrate that gives half-maximal velocity. With `COc1cc(-c2ccc(-n3nc(-c4ccccc4)n[n+]3-c3ccc([N+](=O)[O-])cc3)c(OC)c2)ccc1-n1nc(-c2ccccc2)n[n+]1-c1ccc([N+](=O)[O-])cc1` [NBT, nitro blue tetrazolium chloride], the Km is 2000 µM. In the case of `O=[N+]([O-])c1ccc(-[n+]2nc(-c3ccccc3)nn2-c2ccc(I)cc2)cc1` [INT], the Km is 870 µM.
